Consider three compounds from publication PMC11477482 (Molecules, 2024).

Details of data set [1]: method as in earlier work. The settings on record: ref (2) of the supplement; read-out: DPPH scavenging EC50 (literature value); cited from earlier work. (DPPH is a stable violet radical that fades when it is reduced.)
Data set [2] is described as follows: Cellular metabolic activity, resazurin reduction assay, HaCaT. The format is cell-based, human. The conditions noted are these: human, HaCaT keratinocytes; HaCaT, resazurin, 24 h, concentrations greater than or equal to 500 µM; read-out: cell viability. How it is done:
(§1) The human keratinocytes (HaCaT, CLS 300493, Eppelheim, Germany) cell line was cultured with Dulbecco’s Modified Eagle’s Medium (DMEM) (Sigma-Aldrich, St. Louis, MO, USA), supplemented with 10% (v/v) of heat-inactivated fetal bovine serum (FBS), 1% (v/v) antibiotic solution (from a 10,000 U/mL penicillin and 10,000 μg/mL streptomycin stock) (Gibco, Carlsbad, CA, USA), 3.7 g/L sodium bicarbonate, and 1 mM sodium pyruvate (Sigma-Aldrich, St. Louis, MO, USA). The cell culture of keratinocytes was detached with EDTA solution 1X (Sigma-Aldrich, St. Louis, MO, USA) when the cells reached 70–80% confluence in cell culture flasks. The mouse macrophage cell line (RAW 264.7, ATCC TIB-71, Manassas, VA, USA) was cultured in DMEM supplemented with 10% (v/v) non-inactivated FBS, 1% (v/v) antibiotic solution, 1.5 g/L sodium bicarbonate, and 1 mM sodium pyruvate. Macrophages were mechanically detached with a cell scraper and subcultured in (1:10) proportion of cellular suspension to a final volume of DMEM. […] The metabolic activity of human epidermal keratinocytes (HaCaT), murine macrophages (RAW264.7), and human monocytes (THP-1) was assessed using a resazurin reduction assay. […] The absorbance was read at 570 and 620 nm using a SpectraMax Plus 384 absorbance microplate spectrophotometer (Molecular Devices, San Jose, CA, USA). […]
(In general: Alamar Blue is a resazurin reagent that responds to reducing activity.)

A further data set has as its system B16 cells. The settings on record: 4 mM, compared to 3-O-ethyl ascorbic acid, ref [15],[16],[17]; cited from earlier work.
For another data set, the system named is HaCaT cells. Kind of data set: Cellular metabolic activity, resazurin reduction assay, HaCaT. The format is cell-based, human. The conditions noted are these: HaCaT keratinocytes, concentrations examined (abstract: up to 500 µM). How it is done: as §1
The next data set deals with RAW264.7 cells. Nature of the data set: Cellular metabolic activity, resazurin reduction assay, RAW264.7. The format is cell-based, mouse. The conditions noted are these: RAW264.7 macrophages, concentrations examined (abstract: up to 500 µM). The method, then: as §1
In a further data set the test system is THP-1 cells. Kind of data set: Cellular metabolic activity, resazurin reduction assay, THP-1. The conditions noted are these: THP-1 monocytes, concentrations examined (abstract: up to 500 µM). The format is cell-based, human. The method, then: as §1

The structures appear in SMILES notation. “Also recorded” adds a separate entry of the source.

For the compound `O=C1O[C@H]([C@@H](O)CO)C(O)=C1O` [AA, Ascorbic acid], the EC50 in data set [1] is 16.3 ± 0.569 µM.

As to `O=C1O[C@H]([C@@H](O)CO)C(O)=C1O[C@H]1O[C@H](CO)[C@@H](O)[C@H](O)[C@H]1O` [AAG, 2-O-α-D-glucopyranosyl-L-ascorbic acid], in data set [2], the viability at 24 h is over 70%. Besides, the “lightening effect” value in the data set with B16 cells was “better lightening effect”.

In the case of `O=C1OC(C(COS(=O)(=O)O)OS(=O)(=O)O)C(OS(=O)(=O)O)=C1OC1OC(COS(=O)(=O)O)C(OS(=O)(=O)O)C(OS(=O)(=O)O)C1OS(=O)(=O)O` [AAGS, 2-O-α-D-glucopyranosyl-L-ascorbic acid persulfate], the “effect on cell viability / metabolic activity” value in the data set with HaCaT cells, with RAW264.7 cells and in the data set with THP-1 cells was “did not adversely impact cell viability; also recorded: did not affect the metabolic activity” each time.

As a reminder, the EC50 is the midpoint of the concentration-response curve. A word on the viability: it is a read-out of living cells in per cent, often relative to untreated cells.
